Source: patent US20060257388A1, “Drug delivery systems for stabilized formulations of alpha adrenergic receptor antagonists and the uses thereof” (priority 2005, published 2006)
Counter-ions that a name gives are not always drawn.

Experiments:
patients [1] = details: systemic doses, package insert; cited from earlier work
[2] = Effect of buffer concentration on stability, sodium acetate pH 3.5, 60° C. (HPLC, pH); format: physicochemical
Protocol: (§1) The drug is monitored at a detection wavelength of 232 nm.
Tightly sealed glass vials containing the test solutions were placed in an oven at 40° C. or 60° C. All samples were stored in the dark. Aliquots were removed at designated time points for HPLC analysis and pH measurement. All samples were analyzed without dilution.
In conjunction with HPLC analysis, pH was measured. The measurement was performed using the same samples as used for the HPLC analysis. The pH meter was calibrated using pH 4.00 and 7.00 buffer standards prior to each measurement.
Samples were incubated at 60° C. with scheduled testing performed at day 0, 2, 7, and 14. The various buffer concentrations were prepared by diluting the 50 mM buffer with water and re-examining the pH value to determine if the pH 3.5 was constant. Measurements of pH were performed after HPLC analysis of the samples.

[3] = Narrow-range pH-stability profiling at 60° C. (HPLC); format: physicochemical; details: 50 mM sodium phosphate, FIG. 2
Protocol: as §1
All samples were stored in the dark. […] All samples were analyzed without dilution.
The phosphate buffers were prepared as previously described. The samples were analyzed by HPLC for phentolamine concentration and purity at an initial time point and after 2, 7 and 14 days of storage at 60° C. Measurement of sample pH was done after HPLC analysis.
In order to precisely define the most favorable pH, a stronger stressing condition was needed to generate a greater extent of degradation in the lower pH region. For this study, the incubation condition was shifted from 40° C. to 60° C. Since the extent of degradation after fourteen (14) days was still less than twenty percent (20%) in most samples, zero-order rate kinetics was used for the degradation curves (concentration versus time). The calculated rate constant was plotted against pH to provide the narrow-range pH-stability profile.

human = details: solution containing 0.05 mg/ml; cited from earlier work
[4] = Effect of additives on stability, 60° C. (HPLC); format: physicochemical; details: for Phentolamine Concentration: 10 mM Sodium Acetate, pH 3.5, 60° C.
From the text: as §1
The additives in this study are selected from five groups of injectable excipients namely, tonicity modifiers (NaCl and d-mannitol), metal chelators (EDTA), antioxidants (sodium metabisulfite), complexing agents α-cyclodextrin and niacinamide) and solvents (glycerol and polypropylene glycol). A tonicity modifier is required for adjusting the phentolamine mesylate solution to isotonic. […] Complexing agents were applied in the hope that a possible formation of an inclusion complex (by α-cyclodextrin) or stacking complex (by niacinamide) with phentolamine would modify the rate of hydrolytic degradation of the drug substance. Solvents were added to reduce the dielectric constant of the vehicle and were intended to slow the rate of degradation due to solvent polarity.
The pH value of the solutions was readjusted to pH 3.5, as required. The 25% glycerol (25 g in 100 ml total volume with water) and 25% polypropylene glycol (25 g in 100 ml total volume with water) solutions had their buffer strength adjusted by addition of acetic acid followed by addition of 2 N NaOH for pH adjustment to pH 3.5 followed by addition of the drug to 0.1 mg/ml.
All samples were placed in 10 ml glass serum vials, stoppered with rubber closures with an inert coating (Dalkyo Flurotec by WEST Pharmaceutical), and sealed with flip-top caps after sampling. Vials were placed at 60° C. after the weights were recorded.
Sampling occurred at the initial time point and on days 2, 7, and 14. Vials were weighed, sampled, sealed, re-weighed, and replaced under the selected storage condition until testing at the subsequent time point. Records indicate no significant weight loss during storage.

[5] = tested on: healthy adult volunteer subjects; experiment: Dose range study, reversal of local anesthesia after maxillary infiltration (Example 5); format: in vivo, human
Protocol: The objectives of this study were to evaluate the safety and efficacy of a range of doses of phentolamine in reversing local anesthesia after a maxillary infiltration. Four groups of eight healthy adult volunteer subjects were given an infiltration of the lateral incisor using one 1.8 ml cartridge of lidocaine 2% with epinephrine 1:100,000. […] Subjects palpated their upper lip, nose, and teeth every five minutes for the next five hours after injections.

healthy adult volunteers = experiment: Reversal of soft-tissue anesthesia after inferior alveolar nerve block, proof-of-principle trial (Example 3); format: in vivo, human; details: 0.2 mg in 1.8 ml
Protocol: The objective of this proof-of-principle trial was to evaluate the feasibility of reversing soft-tissue anesthesia by pharmacologically blocking the effects of epinephrine. […] Subjects self-evaluated the return of normal sensation in their lip, chin, tongue, nose, and teeth by palpations at 5-minute intervals starting at 5 minutes before the study drug injection and continuing for approximately 4-5 hours. To avoid biased responding, subjects were told that they could not leave the clinic for 8 hours after the last injection. Responses for soft tissues were categorized as (1) numb (no feeling), (2) feeling of pins and needles, or (3) normal sensation. Responses for teeth were (1) numb (no feeling) or (2) normal sensation. Safety was evaluated through reports of adverse events, measurement of vital signs and two-lead electrocardiograms before, during, and after the injections of anesthetic and study drug, and through pain assessments using visual analog scales.

[6] = tested on: healthy adult volunteer subjects; experiment: Dose range study, reversal of local anesthesia after mandibular nerve block (Example 4); format: in vivo, human
From the text: The objectives of this study were to evaluate the safety and efficacy of a range of doses of phentolamine in reversing local anesthesia after a mandibular nerve block. […] Subjects palpated their lower lip, chin, tongue, and teeth every five minutes for the next five hours after injections.

patients [7] = details: 0.5-1.5 mg, patients pretreated with lignocaine admixed with epinephrine; cited from earlier work
[8] = 0.02 mg, 0.08 mg, 0.4 mg in 1.8 ml
[9] = 0.02 mg, 0.06 mg, 0.4 mg in 1.8 ml

Phentolamine Concentration ([2]; 50 mM Sodium Acetate pH 3.5, 60° C., Day 2): 101 µg/mL
pH at which phentolamine was most stable [3]: 3.5
Phentolamine Concentration ([4]; Additive Glycerol, 25% w/v, Day 0): 126 µg/mL
Phentolamine Concentration ([4]; Additive Glycerol, 25% w/v, Day 2): 123 µg/mL
Phentolamine Concentration ([4]; Additive Glycerol, 25% w/v, Day 14): 115 µg/mL
Phentolamine Concentration ([4]; Additive Polypropylene glycol, 25% w/v, Day 0): 118 µg/mL
Phentolamine Concentration ([4]; Additive Polypropylene glycol, 25% w/v, Day 2): 121 µg/mL
Phentolamine Concentration ([4]; Additive Polypropylene glycol, 25% w/v, Day 7): 113 µg/mL
Phentolamine Concentration ([4]; Additive Sodium metabisulfite, 0.5 mg/ml, Day 2): 101 µg/mL
Phentolamine Concentration ([4]; Additive α-Cyclodextrin, 50 mg/ml, Day 0): 102 µg/mL
Structure (SMILES): Cc1ccc(N(CC2=NCCN2)c2cccc(O)c2)cc1 [Phentolamine Mesylate]
side effect warning (patients [1]): Myocardial infarction, cerebrovascular spasm, and cerebrovascular occlusion have been reported
rate of degradation versus un-buffered control (in words) ([2]; 5, 10 and 50 mM sodium acetate): comparable and was an improvement over the un-buffered control
reversal of local anesthetic effect (in words) (human): rapidly reverse the effect of a local anesthetic
impact of additives on stability (in words) ([4]; d-Mannitol and disodium EDTA): improve stability based on the rate constant or to exhibit no negative impact based on purity values
adverse events [5, 8]: Adverse events were few and no differences were noted between the active and placebo groups
electrocardiogram [5, 8]: no abnormalities in the electrocardiogram
duration of anesthesia versus saline placebo (in words) ([5]; all doses tested (0.02 mg, 0.08 mg, 0.4 mg in 1.8 ml), 40 minutes after lateral incisor infiltration, upper lip, nose, teeth): significantly (p<0.01) reduced the duration of anesthesia in each measured tissue
adverse effects (healthy adult volunteers): Adverse effects were few and no differences were noted between the active and placebo groups
electrocardiogram (healthy adult volunteers): no abnormalities in the electrocardiogram
duration of anesthesia versus saline (in words) (healthy adult volunteers; 60 minutes after inferior alveolar nerve block with 2% lidocaine, 1:100,000 epinephrine, lip, chin, tongue, nose, teeth): significantly (p<0.01) reduced the duration of anesthesia in each tissue
adverse events [6, 9]: Adverse events were few and no differences were noted between the active and placebo groups
electrocardiogram [6, 9]: no abnormalities in the electrocardiogram
duration of anesthesia versus saline placebo (in words) ([6]; all doses tested (0.02 mg, 0.06 mg, 0.4 mg in 1.8 ml), 60 minutes after inferior alveolar nerve block, lower lip, chin, tongue, teeth): significantly (p<0.05) reduced the duration of anesthesia in each measured tissue
duration of anesthesia (in words) (patients [7]): reduction in the duration of anesthesia with increasing amounts
